Assay results published in PubChem BioAssay AID1648 (Sanford-Burnham Center for Chemical Genomics, 2009).
The source made the active and inactive calls. How the calls were made is not given here.

Molecular target: Serine/threonine-protein kinase mTOR (Homo sapiens) (UniProt P42345)
Test: binders of mTOR FRB domain, biophysical, NMR (AID 1648)
Details: NMR binding to FRB domain, chemical shift

Serine/threonine-protein kinase mTOR (Homo sapiens), sequence (P42345 2015-2114): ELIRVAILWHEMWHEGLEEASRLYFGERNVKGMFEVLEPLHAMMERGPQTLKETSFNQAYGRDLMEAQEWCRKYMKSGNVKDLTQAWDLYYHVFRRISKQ

Compound	Kd
COc1ccc(-c2coc3cc(OC)cc(OC)c3c2=O)cc1	> 4 mM (inactive)
OC(c1ccccc1)c1ccccn1 (stereo unspecified)	> 4 mM (inactive)
Cc1nn(-c2ccccc2)c(Cl)c1C(N)=O	> 4 mM (inactive)
Nc1ccccc1N=C1CNC(=O)C1	> 4 mM (inactive)
NC(Cc1c[nH]c2ccccc12)C(=O)O (stereo unspecified)	> 4 mM (inactive)
CSc1ccc(/C=c2\sc3ncnn3c2=O)cc1	> 4 mM (inactive)
O=C(O)C1CC(=O)N(Cc2ccco2)C1 (stereo unspecified)	> 4 mM (inactive)
C=C[C@@](C)(O)CCC1C(=C)CCC2[C@@](C)(CO)CCC[C@]12C (stereo partly specified)	> 4 mM (inactive)
Cc1cc(NS(=O)(=O)Cc2ccccc2)no1	> 4 mM (inactive)
Cc1cc([N+](=O)[O-])cc[n+]1[O-]	> 4 mM (inactive)
CC(C)NC(=O)Cc1c(O)c2ccccc2[nH]c1=O	> 4 mM (inactive)
CC(=O)c1c(O)c(C)c(O)c2c1OC1=CC(=O)C(C(C)=O)C(=O)C12C (stereo unspecified)	> 4 mM (inactive)
CSc1nc(NC(C)C)nc(N2CCOCC2)n1	> 4 mM (inactive)
CN1C2CC[C@@H]1CC(OC(=O)[C@H](CO)c1ccccc1)C2 (stereo partly specified)	> 4 mM (inactive)
Cc1cc(=O)[nH]c(NCc2cccnc2)n1	> 4 mM (inactive)
CN(C)c1oc(-c2ccccc2Cl)nc1C#N	> 4 mM (inactive)
O=c1c(Cl)c(NCCO)ncn1-c1ccccc1	> 4 mM (inactive)
OC1(c2ccc(Cl)cc2)CCNCC1	> 4 mM (inactive)
c1cnc(N2CCSCC2)nc1	> 4 mM (inactive)
Cc1oc2nc3c(c(=O)[nH]c(=O)n3C)n2c1C	> 4 mM (inactive)
Cc1cc(C(=O)NCc2ccccc2Br)no1	> 4 mM (inactive)

Compound	Kd
COc1c2c(cc3cc[n+](C)cc13)OCO2	> 4 mM (inactive)
O=C(NC1=NCCS1)c1ccc([N+](=O)[O-])cc1Cl	> 4 mM (inactive)
NCc1ccc(CN2CCOCC2)cc1	> 4 mM (inactive)
Nc1nc(-c2ccc(F)c(F)c2)cs1	> 4 mM (inactive)
O=C(O)C1=CCCNC1	> 4 mM (inactive)
CN(C)c1nc(N)nc(-c2nc3ccccc3s2)n1	> 4 mM (inactive)
CNC(=S)Nc1ccc2c(c1)OCO2	> 4 mM (inactive)
O=C1CCNc2ccccc2N1	> 4 mM (inactive)
COc1cc2c(cc1OC)[C@@H]1C(=O)c3ccc4c(c3O[C@@H]1CO2)C=CC(C)(C)O4	> 4 mM (inactive)
CN(C)CCCN1CNC(=S)NC1	> 4 mM (inactive)
CC1/C(=N/O)C[C@@H]2C[C@H]1C2(C)C (stereo partly specified)	> 4 mM (inactive)
Nc1cc2ccccc2cn1	> 4 mM (inactive)
CCSc1nc2ccccc2n1CC(N)=O	> 4 mM (inactive)
CS(=O)(=O)N1CCN(C(=O)c2ccccc2F)CC1	> 4 mM (inactive)
OCc1ccc2occc2c1	> 4 mM (inactive)
CS(=O)(=O)c1ccc(N)cc1	> 4 mM (inactive)
CC(=O)Nc1ccc(C)cc1NC(C)=O	> 4 mM (inactive)
O=c1c2ccccc2oc2ccccc12	> 4 mM (inactive)
Cc1ccc(NC(=O)c2ccccc2)s1	> 4 mM (inactive)
O=c1[nH]cc(S(=O)(=O)Nc2ccccc2)c(=O)[nH]1	> 4 mM (inactive)
S=C(Nc1ccc2nccnc2c1)N1CCOCC1	> 4 mM (inactive)

Compound	Kd
Cc1nc2nc(-c3ccco3)nn2c(C)c1Cl	> 4 mM (inactive)
CNc1nnc(Cc2csc(N)n2)s1	> 4 mM (inactive)
c1ccc2[nH]c(SCc3cscn3)nc2c1	> 4 mM (inactive)
N/C(=N/O)C1COc2ccccc2O1 (stereo unspecified)	> 4 mM (inactive)
C[C@@H]1O[C@@H](O[C@H]2[C@@H](Oc3cc(O)c4c(c3)O[C@H](c3ccc(O)cc3)CC4=O)O[C@H](CO)[C@@H](O)[C@@H]2O)[C@H](O)[C@H](O)[C@H]1O	> 4 mM (inactive)
OCC1CCN(c2ncccn2)CC1	> 4 mM (inactive)
Cc1ccc(-c2cc(C(=O)N3CCCC3)no2)cc1	> 4 mM (inactive)
c1ccc2nc3c(nc2c1)CCc1nonc1-3	> 4 mM (inactive)
CC1CCN(C(=O)c2ccc3c(c2)OCCO3)CC1	> 4 mM (inactive)
CC(=O)Nc1ccc(NC2SC(=O)NC2=O)cc1 (stereo unspecified)	> 4 mM (inactive)
Cc1cc2ncc(C(=O)Nc3ccccc3)c(C)n2n1	> 4 mM (inactive)
Cc1nc2ccc(F)cc2cc1C(=O)NCc1ccco1	> 4 mM (inactive)
C=C(C)[C@@H]1[C@H]2OC(=O)[C@@H]1[C@]1(O)C[C@H]3O[C@]34C(=O)O[C@H]2[C@]14C	> 4 mM (inactive)
C=CCNC(=O)c1nn2cccnc2c1Cl	> 4 mM (inactive)
O=[n+]1c(CO)c(CO)n([O-])c2ccccc21	> 4 mM (inactive)
C=C1CCC2C(CC2(C)C)C(=C)CC/C1=N/O (stereo unspecified)	> 4 mM (inactive)
CC(C)(C#N)O[C@@H]1O[C@H](CO)[C@@H](O)[C@H](O)[C@H]1O	> 4 mM (inactive)
NC(=O)CSc1nnc2ccc(-c3ccccn3)nn12	> 4 mM (inactive)
Cn1c(C(=O)O)ccc1S(N)(=O)=O	> 4 mM (inactive)
